The subject of test [1] is spontaneously hypertensive rats (SHR). Kind of test: Evaluation of blood pressure reduction (single administration, systolic blood pressure of the caudal artery). The test is classed as in vivo, rat. The conditions noted are these: male 15 week-old SHR, fasted overnight, solution in physiological saline (0.2% actives in total), 1 mL/kg, mean ± SD, n=5; for Systolic blood pressure (changing ratio %) after 10 minutes: 10 minutes after administration vs prior to administration; for Systolic blood pressure (changing ratio %) After 1 hour: 1 hour after administration vs prior to administration. The procedure: Prior to initiation of the experimental studies in order to accustom the test animals to sphygmomanometric operation the blood pressure of each test animal—male, 15 week-old, spontaneously hypertensive rats (“SHR”)—was preliminarily measured for 7 successive days using a commercially available noninvasive sphygmomanometer for rats (manufactured by Softlon Co., Ltd.).
Rats were all bred in a breeding room in a rat region under uniform conditions at a room temperature at 25±1° C., humidity of 55±10% RH and illumination for 12 hours (from 7:00 am to 7:00 pm).
In the control group (Control Plot, see Table 1), physiological saline was employed. As a material to be administered, a solution obtained by dissolving 0.2 wt. % (which will hereinafter be simply described as %) of caffeic acid in physiological saline, a solution obtained by dissolving 0.2% of a chlorogenic acid in physiological saline, a solution obtained by dissolving 0.2% of ferulic acid in physiological saline and a solution obtained by dissolving 0.1% of caffeic acid and 0.1% of ferulic acid in physiological saline were used in Test plot 1, Test plot 2, Test plot 3 and Test plot 4, respectively. In Test plot 5, a solution obtained by dissolving 0.1% of a chlorogenic acid and 0.1% of ferulic acid in physiological saline was used, while in Test plot 6, a solution obtained by dissolving 0.05% of caffeic acid, 0.05% of a chlorogenic acid and 0.1% of ferulic acid in physiological saline was used. Each of them was administered from the common carotid artery. The dosage was 1 mL/kg.
SHRs were fasted overnight and employed for each test group, each group consisted of 5 rats. Systolic blood pressures of the caudal artery prior to intravenous administration, and 10 minutes and 1 hour each after administration were measured.
In Table 1, the changing ratio (%) in systolic blood pressure for each experimental group is reported by its mean value (%) and by its standard deviation. The Student's t-test was used to indicate the statistical significance of the experimental data. A significance level of 5% or less is indicated as “*” in Table 1, and significance level of 0.1% or less as “***”.
A lowering ratio of the systolic blood pressure of each of 10 minutes and 1 hour after administration to the systolic blood pressure prior to administration is shown in Table 1.

The test system of the next test is calcium. The conditions noted are these: from spike of Schizonepeta tenuifolia Briq.; JP Kokai Hei 4-243822; cited from earlier work.
In test [2] the target is angiotensin I converting enzyme (ACE) (Homo sapiens, UniProt P12821). As to conditions: polyphenols of unripe Rosaceae fruit juice; JP Kokai Hei 8-259453; cited from earlier work.
angiotensin I converting enzyme (ACE), sequence (P12821 30-1306, species assumed): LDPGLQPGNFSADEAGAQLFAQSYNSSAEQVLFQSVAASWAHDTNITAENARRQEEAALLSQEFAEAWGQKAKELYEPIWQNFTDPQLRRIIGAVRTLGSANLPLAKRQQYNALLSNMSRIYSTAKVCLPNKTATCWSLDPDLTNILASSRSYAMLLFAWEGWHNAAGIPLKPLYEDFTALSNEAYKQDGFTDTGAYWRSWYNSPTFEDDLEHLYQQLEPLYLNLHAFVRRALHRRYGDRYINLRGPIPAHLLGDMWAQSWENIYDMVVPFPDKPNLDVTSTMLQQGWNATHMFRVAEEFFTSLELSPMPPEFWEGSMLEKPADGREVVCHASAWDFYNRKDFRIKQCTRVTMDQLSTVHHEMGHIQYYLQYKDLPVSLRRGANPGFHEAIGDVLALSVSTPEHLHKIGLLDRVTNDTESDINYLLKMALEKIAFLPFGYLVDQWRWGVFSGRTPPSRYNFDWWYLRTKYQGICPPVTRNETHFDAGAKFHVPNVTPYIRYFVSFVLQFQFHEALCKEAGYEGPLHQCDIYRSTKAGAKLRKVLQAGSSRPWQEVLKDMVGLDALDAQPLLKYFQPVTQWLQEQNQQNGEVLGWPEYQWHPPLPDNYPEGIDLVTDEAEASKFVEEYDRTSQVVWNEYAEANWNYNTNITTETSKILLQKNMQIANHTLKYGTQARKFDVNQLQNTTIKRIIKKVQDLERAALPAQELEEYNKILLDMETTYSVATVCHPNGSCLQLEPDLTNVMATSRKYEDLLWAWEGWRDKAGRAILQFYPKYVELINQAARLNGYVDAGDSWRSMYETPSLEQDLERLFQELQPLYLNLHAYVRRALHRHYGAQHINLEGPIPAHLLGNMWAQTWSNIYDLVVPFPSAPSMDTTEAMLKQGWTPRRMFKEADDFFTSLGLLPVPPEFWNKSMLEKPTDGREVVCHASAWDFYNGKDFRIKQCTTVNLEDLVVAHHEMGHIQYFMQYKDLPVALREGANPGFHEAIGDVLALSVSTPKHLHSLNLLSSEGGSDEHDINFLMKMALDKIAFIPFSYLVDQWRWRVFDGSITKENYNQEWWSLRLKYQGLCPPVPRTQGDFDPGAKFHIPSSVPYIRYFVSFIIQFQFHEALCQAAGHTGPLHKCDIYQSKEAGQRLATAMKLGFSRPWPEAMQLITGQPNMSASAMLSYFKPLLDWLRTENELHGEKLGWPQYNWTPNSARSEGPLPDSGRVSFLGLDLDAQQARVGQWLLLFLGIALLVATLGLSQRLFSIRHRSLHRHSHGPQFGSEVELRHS

Marks after values point to notes of the source that are not given here.

For the compound `O=C(O)/C=C/c1ccc(O)c(O)c1` [Caffeic acid (CA), caffeic acid], in test [1], the “Systolic blood pressure (changing ratio %) after 10 minutes” value is recorded as −4.1 ± 2.1% and the “Systolic blood pressure (changing ratio %) After 1 hour” value is recorded as −10.2 ± 0.5*** %. For the same compound, the “calcium antagonism (in words)” value in the test on calcium was “exerts calcium antagonism”. In addition, in test [2], the “angiotensin I converting enzyme (ACE) inhibitory action (in words)” value is recorded as “inhibitory action”.
As for `O=C(/C=C/c1ccc(O)c(O)c1)O[C@@H]1C[C@](O)(C(=O)O)C[C@@H](O)[C@H]1O` [Chlorogenic acid (CHA), chlorogenic acid], in test [1], the “Systolic blood pressure (changing ratio %) after 10 minutes” value is on record as −3.2 ± 2.6% and the “Systolic blood pressure (changing ratio %) After 1 hour” value is −7.2 ± 1.7* %. Also, the “angiotensin I converting enzyme (ACE) inhibitory action (in words)” value in test [2] is “inhibitory action”.
`COc1cc(/C=C/C(=O)O)ccc1O` [Ferulic acid (FA), ferulic acid]: in test [1], the “Systolic blood pressure (changing ratio %) after 10 minutes” value is on record as −7.8 ± 0.8*** % and the “Systolic blood pressure (changing ratio %) After 1 hour” value was found to be 0.7 ± 2.6%.

These data come from patent US7750053B2, “Compositions and methods for alleviating hypertension or preventing a rise in blood pressure” (KAO Corporation, priority 2000, dated 2010).
